# Data published in patent US8691757B2 (Bristol-Myers Squibb Company, priority 2011, dated 2014).
# pEC50: −log10 of the molar value.
# Experiments:
# [1] = system: HCV genotype 1a (H77 strain) replicon in HUH-7 cells; test: HCV replicon luciferase reporter assay, genotype 1a; type: cell-based; details: Hepatitis C virus, 72 h, HCV genotype 1a replicon, 3 days incubation, Renilla luciferase
# Text: (§1) An HCV replicon whole cell system was established as described by Lohmann V, Korner F, Koch J, Herian U, Theilmann L, Bartenschlager R., Science 285(5424):110-3 (1999) and modified to introduce a luciferase reporter, as first described by Krieger et al (Krieger N, Lohmann V, and Bartenschlager R, J. Virol. 75(10):4614-4624 (2001)). CDNA encoding a humanized form of the Renilla luciferase gene and a linker sequence fused directly to the 3′-end of the luciferase gene were introduced into the replicon construct using an Asc1 restriction site located in core, directly upstream of the neomycin marker gene. The adaptive mutation at position 1179 (serine to isoleucine) was also introduced (Blight K J, Kolykhalov, A A, Rice, C M, Science 290(5498):1972-1974). A stable cell line constitutively expressing this HCV replicon construct was generated by first linearizing plasmid DNAs with ScaI. RNA transcripts were synthesized in vitro using the T7 MegaScript transcription kit (Ambion, Austin, Tex.) according to manufacturer's directions. In vitro transcripts of the cDNA were transfected into the human hepatoma cell line, HUH-7. […] Resulting cell lines were characterized for positive and negative strand RNA production and protein production over time.
# A stable HCV replicon luciferase reporter cell line representing the genotype 1a H77 strain (Yanagi M, Purcell R H, Emerson S U, et al. Transcripts from a single full-length cDNA clone of hepatitis C virus are infectious when directly transfected into the liver of a chimpanzee. Proc Natl Acad Sci USA 1997; 94(16):8738-8743) was generated as described previously for the genotype 1b (Con1) replicon luciferase cell line. The replicon construct was modified by introducing mutations were introduced into the genes encoding the NS3 helicase domain (proline replaced by leucine at position 1496) and NS5A (serine to isoleucine at position 2204) to improve replication in cell culture.
# (§2) HCV replicon luciferase assays were developed to monitor the inhibitory effects of compounds described in the disclosure on HCV genotypes 1a and 1b viral replication. HUH-7 cells, constitutively expressing the HCV replicon, were grown in Dulbecco's Modified Eagle Media (DMEM) (Gibco-BRL) containing 10% Fetal calf serum (FCS) (Sigma) and 1 mg/mL G418 (Gibco-BRL). Compounds were serially diluted 3 folds in DMSO for a twenty-point titration and subsequently transferred to sterile 384-well tissue-culture treated plates (Corning cat #3571). The plates were then seeded with 50 μL of cells at a density of 3.0×10^3 cells/well in DMEM containing 4% FCS (final DMSO concentration at 0.5%). After 3 days incubation at 37° C., cells were analyzed for Renilla Luciferase activity using the EnduRen as substrate (Promega cat #E6485). The EnduRen substrate was diluted in DMEM and then added to the plates to a final concentration of 7.5 μM. The plates were incubated for 2 hrs at 37° C. and then read immediately for 30 seconds with Viewlux Imager (PerkinElmer) using a luminescence program. To assess cytotoxicity of compounds, CC50 values were generated by multiplexing the EnduRen-containing plates with Cell Titer-Blue (Promega, cat #G8082). Cell-Titer Blue (3 μL) was added to each well and incubated for 8 hrs at 37° C. The fluorescence signal from each well was read, with an excitation wavelength at 525/10 nm and an emission wavelength of 598/10 nm, using the Viewlux Imager.
# (§3) The EC50 values for compounds were calculated by using a four-parameter logistic equation: y=A+((B−A)/(1+((C/x)^D))), where A and B denotes minimal and maximal % inhibition, respectively, C is the EC50, D is the hill slope and x represents compound concentration.
# [2] = system: HCV genotype 1b (Con1) replicon in HUH-7 cells; test: HCV replicon luciferase reporter assay, genotype 1b; type: cell-based; details: Hepatitis C virus, 72 h, HCV genotype 1b replicon, 3 days incubation, Renilla luciferase
# Text: as §1, with “time. […]” for “time.”
# as §2, §3
SMILES,pEC50 ([1]; range classes),pEC50 ([2]; range classes),pEC50 ([1]; numeric values),pEC50 ([2]; numeric values)
"COc1cnc(O[C@@H]2C[C@H]3C(=O)N[C@]4(C(=O)NS(=O)(=O)C5(C)CC5)C[C@H]4/C=C\[C@H](C)CCC[C@@H](C)[C@H](NC(=O)OC(C)(C)C(F)(F)F)C(=O)N3C2)c2cccc(Cl)c12 [Compound 25, 1,1,1-trifluoro-2-methylpropan-2-yl (2R,6S,7R,11R,13aS,14aR,16aS,Z)-2-(5-chloro-4-methoxyisoquinolin-1-yloxy)-7,11-dimethyl-14a-(1-methylcyclopropylsulfonylcarbamoyl)-5,16-dioxo-1,2,3,5,6,7,8,9,10,11,13a,14,14a,15,16,16a-hexadecahydrocyclopropa[e]pyrrolo[1,2-a][1,4]diazacyclopentadecin-6-ylcarbamate]",8.70 to 9.00,9.00 to 9.70,,
"COc1ccc2c(O[C@@H]3C[C@H]4C(=O)N[C@]5(C(=O)NS(=O)(=O)C6CC6)C[C@H]5/C=C\[C@H](C)CCC[C@@H](C)[C@H](NC(=O)OC(C)(C)C(F)(F)F)C(=O)N4C3)ncc(OC)c2c1 [Compound 22, 1,1,1-trifluoro-2-methylpropan-2-yl (2R,6S,7R,11R,13aS,14aR,16aS,Z)-14a-(cyclopropylsulfonylcarbamoyl)-2-(4,6-dimethoxyisoquinolin-1-yloxy)-7,11-dimethyl-5,16-dioxo-1,2,3,5,6,7,8,9,10,11,13a,14,14a,15,16,16a-hexadecahydrocyclopropa[e]pyrrolo[1,2-a][1,4]diazacyclopentadecin-6-ylcarbamate]",8.70 to 9.00,9.00 to 9.70,,
"COc1cnc(O[C@@H]2C[C@H]3C(=O)N[C@]4(C(=O)NS(=O)(=O)C5CC5)C[C@H]4/C=C\[C@H](C)CCC[C@@H](C)[C@H](NC(=O)OC(C)(C)C)C(=O)N3C2)c2cccc(Cl)c12 [Compound 5, tert-butyl (2R,6S,7R,11R,13aS,14aR,16aS,Z)-2-(5-chloro-4-methoxyisoquinolin-1-yloxy)-14a-(cyclopropylsulfonylcarbamoyl)-7,11-dimethyl-5,16-dioxo-1,2,3,5,6,7,8,9,10,11,13a,14,14a,15,16,16a-hexadecahydrocyclopropa[e]pyrrolo[1,2-a][1,4]diazacyclopentadecin-6-ylcarbamate]",,,9.39,8.92
"COc1ccc2ncc(O[C@@H]3C[C@H]4C(=O)N[C@]5(C(=O)NS(=O)(=O)C6CC6)C[C@H]5/C=C\[C@H](C)CCC[C@@H](C)[C@H](NC(=O)OC(C)(C)C)C(=O)N4C3)nc2c1 [Compound 28, tert-butyl (2R,6S,7R,11R,13aS,14aR,16aS,Z)-14a-(cyclopropylsulfonylcarbamoyl)-2-(7-methoxyquinoxalin-2-yloxy)-7,11-dimethyl-5,16-dioxo-1,2,3,5,6,7,8,9,10,11,13a,14,14a,15,16,16a-hexadecahydrocyclopropa[e]pyrrolo[1,2-a][1,4]diazacyclopentadecin-6-ylcarbamate]",7.17 to 8.30,8.70 to 9.00,,
COc1ccc2c(O[C@@H]3C[C@H]4C(=O)N[C@]5(C(=O)NS(=O)(=O)C6(CF)CC6)C[C@H]5/C=C\[C@@H](C)CCC[C@@H](C)[C@H](NC(=O)OC(C)(C)C(F)(F)F)C(=O)N4C3)ncc(OC)c2c1 [Compound 13],7.17 to 8.30,8.30 to 8.70,,
"COc1cnc(O[C@@H]2C[C@H]3C(=O)N[C@]4(C(=O)NS(=O)(=O)C5CC5)C[C@H]4/C=C\[C@@H](C)CCC[C@@H](C)[C@H](NC(=O)OC(C)(C)C)C(=O)N3C2)c2cccc(Cl)c12 [Compound 6, tert-butyl (2R,6S,7R,11S,13aS,14aR,16aS,Z)-2-(5-chloro-4-methoxyisoquinolin-1-yloxy)-14a-(cyclopropylsulfonylcarbamoyl)-7,11-dimethyl-5,16-dioxo-1,2,3,5,6,7,8,9,10,11,13a,14,14a,15,16,16a-hexadecahydrocyclopropa[e]pyrrolo[1,2-a][1,4]diazacyclopentadecin-6-ylcarbamate]",8.70 to 9.00,8.30 to 8.70,,
